{"source": "paper PMC2408655", "about": "(Journal of Neurochemistry, 2008)", "key": {"[1]": {"target": "Aβ fibrils", "details": "read-out: Kd and Ki values, Aβ, in vitro generated Aβ fibrils, cited from earlier work"}, "[2]": {"target": "T1, α-synuclein (AS) filaments (Homo sapiens, UniProt P37840)", "test": "Radioligand competition assay of α-synuclein", "format": "binding", "details": "for displacement of the radioligand from the AS filaments: [3H]-Me-BTA1 radioligand, Fig. 3b"}, "[3]": {"target": "T1, α-synuclein (AS) filaments", "test": "Radioligand binding assay of α-synuclein"}}, "note": "Where two headings read alike, the source gives them in different places."}
{"smiles": "CN(C)c1ccc(-c2cc3cc(Br)ccc3o2)cc1", "note": "[BF1, 5-bromo-2-(4-dimethylaminophenyl)benzofuran]", "values": [{"measurement": "Ki", "setting": "[1]; ref Lockhart et al. 2005", "value": 3, "unit": "nM"}, {"measurement": "displacement of the radioligand from the AS filaments", "setting": "[2]", "value": "dose-dependent displacement"}]}
{"smiles": "CNc1ccc(-c2nc3ccc(C)cc3s2)cc1", "note": "[Me-BTA1, 2-[4′-(methylamino)phenyl]-6-methylbenzothiazole]", "values": [{"measurement": "Kd", "setting": "[1]; ref Lockhart et al. 2005", "value": 4.2, "unit": "nM"}]}
{"smiles": "CNc1ccc(-c2nc3ccc(O)cc3s2)cc1", "note": "[PIB, 2-[4′-(methylamino)phenyl]-6-hydroxybenzothiazole]", "values": [{"measurement": "Ki", "setting": "[1]; ref Ye et al. 2005", "value": 25, "unit": "nM"}, {"measurement": "Kd", "setting": "[3]", "value": 4.16, "unit": "nM"}, {"measurement": "fold weaker binding than BF1", "setting": "[2]; Ki relative to BF1", "value": "around fourfold weaker"}, {"measurement": "displacement of the radioligand from the AS filaments", "setting": "[2]", "value": "dose-dependent displacement"}]}
